Laboratory results: US10272098B2, “Chelated drug delivery systems” (Drexel University, priority 2013, dated 2019)
Counter-ions that a name gives are not always drawn.

Tests used:
[1] = system: NIH 3T3 fibroblasts; assay: Fresh DOX dose- and time-dependent treatment; type: cell-based; conditions: nine-day treatment with 0.2 μg/mL DOX; vs untreated control
Description: The medium was changed every 24 hr.

[2] = cited from earlier work
[3] = system: MDA-MB-231 cells; assay: Fresh DOX dose- and time-dependent treatment
[4] = system: 3T3 fibroblast cells; assay: Cytotoxicity cell counting assay in 3T3 fibroblasts; type: cell-based; conditions: 24 h; complex with 4 μg MH in 100 μl or 40 μg/mL fresh MH; vs untreated control
Procedure: After 24 h, cell viability was determined using a cell counting assay (Roche) according to the manufacturer's instruction, and cell morphology was imaged by staining the cells with cresyl violet (0.5 mg/mL) for 30 min after the cells were fixed. In vitro cytotoxicity of the polyelectrolyte MH/DS/metal ion complexes were studied by using 3T3 fibroblast cells. […] Cell morphology was examined after treatment with MH/DS/metal ion complexes (FIGS. 7C-7F).

[5] = systemic administration of 200 mg MH daily (3 mg/kg); human subjects; cited from earlier work

SMILES | cell viability of fibroblasts [1] | time stock solution is stable ([2]; 4 degree) | DOX degraded ([2]; cell culture medium at 37° C., 4 days) | time solution is stable ([2]; room temperature, Adriamycin instruction booklets) | time in which all the cancer cells were completely killed ([3]; DOX 0.2 μg/mL) | DOX concentration range that effectively kills cancer cells with minimal fibroblast cytotoxicity ([3]; for 5-9 days) | 3T3 fibroblast viability (cell counting assay) [4] | MH in the cerebrospinal fluid (CSF) [5]
COc1cccc2c1C(=O)c1c(O)c3c(c(O)c1C2=O)C[C@@](O)(C(=O)CO)C[C@@H]3O[C@H]1C[C@H](N)[C@H](O)[C@H](C)O1 [DOX, doxorubicin] | did not significantly reduce the cell viability | 1 month | 30%-40% | 7 days | 8 days | 0.1 to 0.4 µg/mL | – | –
CN(C)c1ccc(O)c2c1C[C@H]1C[C@H]3[C@H](N(C)C)C(O)=C(C(N)=O)C(=O)[C@@]3(O)C(O)=C1C2=O [MH, Minocycline hydrochloride] | – | – | – | – | – | – | no significant difference | about 0.5 μg/mL
